# Values joined by “and” are separate entries in the source; they are usually repeats but may differ in a detail not shown here. Equal values may be shown once. Read-outs that look alike come from different tables or passages of the source.
# Columns and labels:
# MCF-7 breast tumor cells = details: Sundaram and Gewirtz, 1999; Sundaram et al., 2000; cited from earlier work
# MCF-7 cells [1] = test: TUNEL assay of DNA fragmentation (apoptotic cell death); type: cell-based, human; details: for DNA fragmentation indicative of apoptotic cell death: agent alone
# Source text: The method of Gavrielli et al. (1992) was utilized as an independent assessment of apoptotic cell death in combined cytospins containing both adherent and non-adherent cells. The cells were fixed and the fragmented DNA in cells undergoing apoptosis was detected using the In Situ Cell Death detection Kit (Boehringer-Manheim). In this assay, the fragmented DNA in individual cells was end labeled using fluorescein-dUTP at strand breaks by the enzyme terminal transferase. The slides were then washed, mounted in Vectashield and photographed using a Nikon fluorescent microscope. For quantitation, fluorescent cells were scored positive for DNA fragmentation.
# MCF-7 cells [2] = test: Cell morphology (Wright-Giemsa stain, light microscopy); type: cell-based, human; details: for apoptotic cell morphology (dark and shrunken cells): 72 h after exposure; for apoptotic cell morphology: agent alone
# Source text: Seventy-two hours after adriamycin or irradiation exposure, cells were washed and cytocentrifuged onto microscopic slides. The cells were stained Wright-Giesma stain and photographed under a Nikon light microscope.
# MCF-7 cells [3] = test: Clonogenic analysis (colony forming assay) with statistical model of additivity; type: cell-based, human; details: for Predicted Response Under Additivity (Surviving Fraction): statistical model of additivity
# Protocol: (§1) All cell lines were grown from frozen stocks in basal RPMI 1640 medium supplemented with 10% fetal calf serum, 2 mM L-glutamine, penicillin/streptomycin at 37° C. under a humidified, 5% CO2 atmosphere. All studies were conducted using approximately 10^4 cells/cm^2 at day 0 with the use of time-equivalent and concentration-equivalent controls. The results shown are averages of two to three studies.
# MCF-7 cells were treated with ILX 23-7553 (200 nM), adriamycin or radiation alone and with ILX 23-7553 preceding various doses of adriamycin or radiation. For analysis of additivity, MCF-7 cells were treated with various doses of ILX 23-7553 (0-200 nM) in combination with a single dose of either adriamycin (20 nM) or irradiation (2.5 Gy). Cells were trypsinized immediately following adriamycin or radiation under sterile conditions and plated in triplicate in 6 well cell culture plates at approximately 1000 cells for each condition. After 7-10 days, the cells were fixed with 100% methanol, air-dried for 1-2 hr and stained with […] crystal violet. Groups of 50 or more cells were counted as colonies.
# The predicted responses for the colony forming assay were determined using the following model: y=exp(B0+B1x1+B2x2) where y is the predicted response, x1 is either dose of irradiation ([…]) or adriarnycin (nM), x2 is the dose of ILX 23-7553 (nM), B0 is an unknown parameter associated with the intercept, B1 is an unknown parameter associated with the slope of x1 and B2 is an unknown parameter associated with the slope of x2. Parameter estimates were found using a generalized least squares criterion for nonlinear models. A constant variance was assumed across the dose range of all four compounds. The Gauss-Newton iterative algorithm was used in PROC NLIN in SAS (version 6.12) to find parameter estimates. The compare the observed response at each combination point to that predicted under the hypotheses of additivity, a prediction interval was used following Gennings et al. (1997). An overall test for additivity (Radford et al., 1994) was based on testing they hypothesis that the mean response under the hypothesis of additivity is the true mean response. The estimated responses under the hypothesis of additivity were provided by the additivity model. The estimated responses for the true means were provided by the sample means at each mixture group.
# MCF-7 cells [4] = test: Viable cell number by trypan blue exclusion; type: cell-based, human
# Protocol: as §1
# The response of cells treated with adriamycin (1 μM) for 2 hr and irradiation (10 Gy) was assessed 72 hr after treatment by trypan blue exclusion. The response of cells treated with ILX 23-7553 (200 nM) for 72 hr was evaluated 72 hr after removal of ILX 23-7553. To evaluate the combined effects of adriamycin or irradiation with ILX 23-7553 (200 nM), cells were treated with ILX 23-7553 for 72 hr prior to adriamycin (1 μM) or irradiation (10 Gy) and allowed to grow for an additional 72 hr. Cells were harvested using trypsin, stained with 0.4% trypan blue and trypan blue negative cells were counted under phase contrast microscopy.
# MCF-7 cells [5] = details: previous work, literature; cited from earlier work
# [6] = ILX 23-7553 pretreatment followed by radiation
smiles,measurement,setting,value
C=C1/C(=C\C=C2/CCC[C@]3(C)[C@@H]([C@H](C)/C=C/C=C/C(O)(CC)CC)CC[C@@H]23)C[C@@H](O)C[C@@H]1O [EB 1089],effect on the response of MCF-7 breast tumor cells to adriamycin and irradiation,MCF-7 breast tumor cells,enhances
C=C1/C(=C\C=C2/CCC[C@]3(C)C([C@H](C)CC#CC(C)(C)O)=CC[C@@H]23)C[C@@H](O)C[C@@H]1O [ILX 23-7553],percent TUNEL-positive cells (cells with DNA fragmentation),MCF-7 cells [1]; ILX 23-7553 pretreatment followed by adriamycin,15% and 14%
same,percent TUNEL-positive cells (cells with DNA fragmentation),MCF-7 cells [1]; ILX 23-7553 pretreatment followed by irradiation,7%
same,DNA fragmentation indicative of apoptotic cell death,MCF-7 cells [1],not induced
same,apoptotic cell morphology (dark and shrunken cells),MCF-7 cells [2]; ILX 23-7553 in combination with adriamycin,observed
same,apoptotic cell morphology (dark and shrunken cells),MCF-7 cells [2]; ILX 23-7553 in combination with irradiation,observed
same,apoptotic cell morphology,MCF-7 cells [2],did not produce cells with this apoptotic morphology
same,fold decrease in adriamycin dose required to reduce clonogenic survival by 50%,MCF-7 cells [3]; 200 nM ILX 23-7553 pretreatment for 72 h vs adriamycin alone,~2.5 fold and 2 fold
same,fold reduction in irradiation dose required to reduce clonogenic survival by 50%,MCF-7 cells [3]; 200 nM ILX 23-7553 pretreatment for 72 h vs irradiation alone,4 fold
same,Observed Mean Response (Surviving Fraction),"MCF-7 cells [3]; Adr 1 nM, ILX 200 nM",0.67
same,Predicted Response Under Additivity (Surviving Fraction),"MCF-7 cells [3]; Adr 1 nM, ILX 200 nM",0.53
same,Observed Mean Response (Surviving Fraction),"MCF-7 cells [3]; Adr 5 nM, ILX 200 nM",0.58
same,Predicted Response Under Additivity (Surviving Fraction),"MCF-7 cells [3]; Adr 5 nM, ILX 200 nM",0.51
same,Observed Mean Response (Surviving Fraction),"MCF-7 cells [3]; Adr 10 nM, ILX 200 nM",0.52
same,Predicted Response Under Additivity (Surviving Fraction),"MCF-7 cells [3]; Adr 10 nM, ILX 200 nM",0.49
same,Observed Mean Response (Surviving Fraction),"MCF-7 cells [3]; Adr 20 nM, ILX 50 nM",0.58
same,Predicted Response Under Additivity (Surviving Fraction),"MCF-7 cells [3]; Adr 20 nM, ILX 50 nM",0.63
same,Observed Mean Response (Surviving Fraction),"MCF-7 cells [3]; Adr 20 nM, ILX 100 nM",0.50
same,Predicted Response Under Additivity (Surviving Fraction),"MCF-7 cells [3]; Adr 20 nM, ILX 100 nM",0.56
same,Observed Mean Response (Surviving Fraction),"MCF-7 cells [3]; Adr 20 nM, ILX 200 nM",0.46
same,Predicted Response Under Additivity (Surviving Fraction),"MCF-7 cells [3]; Adr 20 nM, ILX 200 nM",0.44
same,Observed Mean Response (Surviving Fraction),"MCF-7 cells [3]; Adr 100 nM, ILX 200 nM",0.24
same,Predicted Response Under Additivity (Surviving Fraction),"MCF-7 cells [3]; Adr 100 nM, ILX 200 nM",0.20
same,Observed Mean Response (Surviving Fraction),"MCF-7 cells [3]; IR 0.5 Gy, ILX 200 nM",0.34
same,Predicted Response Under Additivity (Surviving Fraction),"MCF-7 cells [3]; IR 0.5 Gy, ILX 200 nM",0.51
same,Observed Mean Response (Surviving Fraction),"MCF-7 cells [3]; IR 1.0 Gy, ILX 200 nM",0.27
same,Predicted Response Under Additivity (Surviving Fraction),"MCF-7 cells [3]; IR 1.0 Gy, ILX 200 nM",0.41
same,Observed Mean Response (Surviving Fraction),"MCF-7 cells [3]; IR 2.5 Gy, ILX 50 nM",0.23
same,Predicted Response Under Additivity (Surviving Fraction),"MCF-7 cells [3]; IR 2.5 Gy, ILX 50 nM",0.29
same,Observed Mean Response (Surviving Fraction),"MCF-7 cells [3]; IR 2.5 Gy, ILX 200 nM",0.20
same,Predicted Response Under Additivity (Surviving Fraction),"MCF-7 cells [3]; IR 2.5 Gy, ILX 200 nM",0.22
same,Observed Mean Response (Surviving Fraction),"MCF-7 cells [3]; IR 5.0 Gy, ILX 200 nM",0.13
same,Predicted Response Under Additivity (Surviving Fraction),"MCF-7 cells [3]; IR 5.0 Gy, ILX 200 nM",0.08
same,dose of irradiation required to produce a 50% decrease in clonogenic survival,MCF-7 cells [3]; after 200 nM ILX 23-7553 pretreatment (irradiation alone: 1 Gy),0.25 Gy
same,type of interaction between ILX 23-7553 and irradiation (additive vs synergistic),"MCF-7 cells [3]; colony forming assays, observed vs predicted surviving fractions, p=0.196",additively
same,type of interaction between ILX 23-7553 and adriamycin (additive vs synergistic),"MCF-7 cells [3]; colony forming assays, observed vs predicted surviving fractions, p=0.461",additively
same,cytotoxicity at 0.2 µM,"MCF-7 cells [4]; Homo sapiens, MCF7, 72 h, ILX 23-7553 200 nM for 72 h alone, counted 72 h after removal, vs untreated controls, read-out: decrease in viable cell number",60%
same,cytotoxicity at 0.2 µM,"MCF-7 cells [4]; Homo sapiens, MCF7, ILX 23-7553 200 nM 72 h pretreatment followed by 10 Gy ionizing radiation, counted 72 h after, read-out: decrease in viable cell number",93%
same,cytotoxicity at 0.2 µM,"MCF-7 cells [4]; Homo sapiens, MCF7, ILX 23-7553 200 nM 72 h pretreatment followed by adriamycin 1 μM, counted 72 h after, read-out: decrease in viable cell number",97%
same,decrease in viable cell numbers as compared to ILX 23-7553 alone,MCF-7 cells [4]; [6],66%
same,decrease in viable cell numbers as compared to radiation alone,MCF-7 cells [4]; [6],24%
"COc1cccc2c1C(=O)c1c(O)c3c(c(O)c1C2=O)C[C@@](O)(C(=O)CO)C[C@@H]3O[C@H]1C[C@H](N)[C@H](O)[C@H](C)O1 [adriamycin, reference compound]",induction of apoptotic cell death,MCF-7 cells [5],neither adriamycin nor irradiation induces apoptotic cell death
same,DNA fragmentation indicative of apoptotic cell death,MCF-7 cells [1],not induced
same,apoptotic cell morphology,MCF-7 cells [2],did not produce cells with this apoptotic morphology
same,cytotoxicity at 1 µM,"MCF-7 cells [4]; Homo sapiens, MCF7, adriamycin 1 μM (2 hr acute exposure) alone, counted 72 h after, vs untreated controls, read-out: decrease in viable cell number",74%
